Test results from article PMC7563222, “Recognition of Dimeric Lewis X by Anti-Dimeric Le^x Antibody SH2” (Vaccines, 2020).

Tests used:
[1] = tested on: mAb SH2; experiment: Indirect titration ELISA of SH2 ascites against coated glycoconjugates; type: binding, mouse; conditions: for Binding of SH2 to coated antigen (titration, in words): antigens coated at 10 μg/mL, 2 and 5 also at 20 µg/mL (not shown)
Description: MaxiSorp NUNC 96-well enzyme-linked immunosorbent assay (ELISA) microtiter plate (Thermo Fisher Scientific) was coated with a dilution of glycoconjugates 1–5 and BSA (100 μL per well, […]) in a 10 mM phosphate-buffered saline (PBS) solution at pH 7.1. The plate was covered with sealing tape and incubated at 4 °C overnight. The antigen solution was discarded, and the plate was washed (using ELx405 auto plate washer, 5 × 15 s) with a 10 mM PBS buffer at pH 7.3 containing 0.05% Tween 20. The plate was blocked with 0.05% skim milk in 10 mM PBS (300 μL per well) and incubated for 1 h at 37 °C. The plate was then washed with 10 mM PBS-0.05% Tween 20. A 1:100 dilution of SH2 ascites was prepared and 146 μL of the dilution was distributed in the wells corresponding to the primary dilution. All other wells received 100 μL of the 10 mM PBS-0.05% Tween 20 pH 7.3 buffer. In-plate serial dilutions were performed in which 46 μL of the primary dilution was pipetted downward along the rows. The well contents were mixed by rinsing the pipette tips (7×). Lastly, 46 μL of the mAb solution was removed and discarded from the wells, which received the final solution of mAb (final volume in all wells, 100 μL). The last row of the 96-well plate was used as the blank control. MAb SH2 ascites were not pipetted into these wells, rather 100 μL of 10 mM PBS-0.05% Tween 20 was added. The plate was incubated for 2 h at 23 °C (in the dark). The plate was subsequently washed using the plate washer with PBS-0.05% Tween 20. A dilution of commercially available horseradish peroxidase labeled goat anti-mouse antibody (Mandel Scientific) (1:5000 in 10 mM PBS-0.05% Tween 20, 100 μL per well) was added to each well. After 1 h of incubation at 23 °C (in the dark), the plate was washed with PBS-0.05% Tween 20. A solution of the chromogenic substrate 3,3′,5,5′-tetramethylbenzidine (TMB) (Mandel Scientific) (100 μL per well) was added. After a 10 min incubation period at 23 °C (in the dark), 100 μL of 5% Phosphoric Acid stop solution was added to the wells to quench the reaction. The absorbance values were read at 450 nm employing a PowerWave XS plate reader. All samples were prepared in triplicate. The absorbance values were plotted against an increasing serum dilution. The values were fitted to a 4-parameter logistics sigmoidal equation: y = y0 + a/[1 + (x/x0)^b] using Sigma Plot®® 10.0.

[2] = tested on: mAb SH2; experiment: Competitive ELISA: inhibition of mAb SH2 binding to immobilized (DimLe^x)16-BSA conjugate 1; parameters: species or system mouse; conditions: (DimLe^x)16-BSA 1 immobilized; SH2 serum dilution 1:500 (Figure 5)
Description: A MaxiSorp NUNC 96-well ELISA microtiter plate was coated with a dilution of the (DimLe^x)16-BSA conjugate 1 (100 μL per well, 5 μg/mL) in a 10 mM PBS solution at pH 7.1. The plate was covered with sealing tape and incubated at 4 °C overnight. The antigen solution was discarded, and the plate was washed (using ELx405 auto plate washer, 5 × 15 s) with a 10 mM PBS buffer at pH 7.3 containing 0.05% Tween 20. In 1.5 mL Eppendorf tubes, 175 μL dilutions of competitors (concentration ranging from 0.632 mg/mL to 2 mg/mL in 10 mM PBS-0.05% Tween 20) were incubated for 1 h at 23 °C (in the dark) with 175 μL of a solution of SH2 ascites (1:500 dilution in 10 mM PBS-0.05% Tween 20). At the same time, the plate was blocked with 0.05% skim milk in PBS (300 μL per well). After 1 h of incubation at 37 °C, the plate was washed with 10 mM PBS-0.05% Tween 20. Each well then received 100 μL of the competitor-mAb mixture. Three wells were used as the blank control in which the competitor-mAb mixture was not added, rather received 100 μL of 10 mM PBS-0.05% Tween 20. The plate was incubated for 3 h at 23 °C (in the dark). The plate was subsequently washed using the plate washer with PBS-0.05% Tween 20. A dilution of commercially available horseradish peroxidase labeled goat anti-mouse antibody (1:5000 in 10 mM PBS-0.05% Tween 20, 100 μL per well) was added to each well. After 1 h of incubation at 23 °C (in the dark), the plate was washed with 10 mM PBS-0.05% Tween 20. A solution of the chromogenic substrate TMB (100 μL per well) was added. After a 10 min incubation period at 23 °C (in the dark), 100 μL of 5% Phosphoric Acid stop solution was added to the wells to quench the reaction. The absorbance values were read at 450 nm employing a PowerWave XS plate reader. All samples were prepared in triplicate. The absorbance values were plotted as the percentage inhibition against an increasing concentration of competitor, calculated using wells containing no competitor as the reference point. The values were fitted to a 4-parameter logistics sigmoidal equation: y = y0 + a/[1 + (x/x0)^b] using Sigma Plot 10.0. The concentration of each analogue required for 50% inhibition (IC50) of Le^x-SH2 binding and the corresponding changes in free energy Δ(ΔG) of binding (kcal·mol^−1) using DimLe^xOPr 6 (Table 1) or Le^xOMe 7 (Table 2) as the reference were calculated.

Row | Substance | Binding of SH2 to coated antigen (titration, in words) [1] | Inhibition of SH2 binding to (DimLe^x)16-BSA by glycoconjugates as soluble inhibitors (in words) [2] | Titration curve of SH2 (in words) ([1]; coating with 3 µg/mL of the conjugate (Figure S1))
1 | (Le^x)10-BSA [compound 3] | no binding | did not | –
2 | (Le^x)35-BSA [compound 4] | weakly binds | did not | –
3 | (GDimLe^x)16-BSA [compound 5] | no binding | – | –
4 | (DimLe^x)16-BSA [compound 1] | – | able to inhibit binding | did not reach maximum optical density
5 | (DimLe^x)6-TT [compound 2] | very little binding | – | –
6 | bovine serum albumin [BSA, reference compound] | no affinity | – | –
